Results as given in patent publication US7064217B2 (University of Virginia Patent Foundation, priority 2001, dated 2006).
“Also recorded” adds a separate entry of the source. Read-outs that look alike come from different tables or passages of the source. Blank lines part the entries; values can stand above or below the molecule they belong to.

Assays:
Type in all cases: biochemical
[1] = target: T1, hS1P2 (Homo sapiens, UniProt O95136); experiment: [γ-35S]GTP binding to HEK293T cell membranes, hS1P2; settings: GTPγS binding; for activity at the S1P2 receptor: Example 3 series; for EC50: read-out: EC50 Values (nM) for S1P Analogues at Recombinant S1P Receptors, hS1P2, HEK293
T1 construct: expressed in transfected cells; host or cells: HEK293T
T1 sequence (O95136 whole entry): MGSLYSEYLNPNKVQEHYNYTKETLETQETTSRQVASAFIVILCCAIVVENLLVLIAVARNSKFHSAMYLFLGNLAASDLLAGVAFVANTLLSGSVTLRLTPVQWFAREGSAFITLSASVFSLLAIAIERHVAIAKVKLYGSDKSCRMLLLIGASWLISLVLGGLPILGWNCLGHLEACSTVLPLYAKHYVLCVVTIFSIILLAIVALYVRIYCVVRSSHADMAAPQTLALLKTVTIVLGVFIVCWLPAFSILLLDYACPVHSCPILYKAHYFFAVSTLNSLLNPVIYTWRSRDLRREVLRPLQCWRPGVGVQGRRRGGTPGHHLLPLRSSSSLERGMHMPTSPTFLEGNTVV
Description: (§1) Human or mouse S1P5 DNA was mixed with an equal amount of DNA encoding a rat Gi2R protein as well as DNAs encoding cow β1 and γ2 proteins and used to transfect monolayers of HEK293T cells using the calcium phosphate precipitate method. After 60 h, cells were harvested, and microsomes were prepared, aliquoted, and stored at −70° C. until use.
(§2) After incubating for 30 min at 30° C., bound radionuclide was separated from free by filtration through Whatman GF/C paper using a Brandel Cell Harvester (Gaithersburg, Md.).
(§3) Assay of cAMP accumulation was performed as described previously (See Im et al., J. Biol. Chem. 275, 14281–14286 (2000), the disclosure of which is incorporated herein). Assays were conducted on populations of 5×10^5 cells stimulated with 1 uM forskolin in the presence of the phosphodiesterase inhibitor […] (IBMX, 1 mM) for 15 min. cAMP was measured by automated radioimmunoassay. The GTPγS studies were performed using zebrafish S1P1 overexpressed rat RH-7777 and human hS1P1, hS1P2, hS1P3 and hS1P5 overexpressed human HEK293 cells.
(§4) An additional series of compounds was tested using the GTPγS binding assay described in Example 2 and in Im et al., J. Biol. Chem. 275, 14281–14286 (2000), the disclosure of which is incorporated herein).

[2] = target: T2, hS1P3 (Homo sapiens, UniProt Q99500); experiment: [γ-35S]GTP binding to HEK293T cell membranes, hS1P3; settings: GTPγS binding; for activity at the S1P3 receptor (inverse agonism/antagonism or agonism): Example 3 series; for EC50: read-out: EC50 Values (nM) for S1P Analogues at Recombinant S1P Receptors, hS1P3, HEK293
T2 construct: expressed in transfected cells; host or cells: HEK293T
T2 sequence (Q99500 whole entry): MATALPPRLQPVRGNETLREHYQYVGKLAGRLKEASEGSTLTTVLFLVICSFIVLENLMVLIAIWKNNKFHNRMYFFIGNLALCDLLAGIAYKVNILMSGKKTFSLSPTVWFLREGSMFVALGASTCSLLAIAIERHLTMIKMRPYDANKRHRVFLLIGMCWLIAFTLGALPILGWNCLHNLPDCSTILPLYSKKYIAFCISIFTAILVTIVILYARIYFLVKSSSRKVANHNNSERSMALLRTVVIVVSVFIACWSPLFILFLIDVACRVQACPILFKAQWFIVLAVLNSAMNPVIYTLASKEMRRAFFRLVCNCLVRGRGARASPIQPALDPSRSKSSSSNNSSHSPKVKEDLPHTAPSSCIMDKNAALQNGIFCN
Description: as §1, §2, §3, §4

[3] = target: T3, hS1P1 (Homo sapiens, UniProt P21453); experiment: [γ-35S]GTP binding to HEK293T cell membranes, hS1P1; settings: GTPγS binding; for EC50: read-out: EC50 Values (nM) for S1P Analogues at Recombinant S1P Receptors, hS1P1, HEK293
T3 construct: expressed in transfected cells; host or cells: HEK293T
T3 sequence (P21453 whole entry): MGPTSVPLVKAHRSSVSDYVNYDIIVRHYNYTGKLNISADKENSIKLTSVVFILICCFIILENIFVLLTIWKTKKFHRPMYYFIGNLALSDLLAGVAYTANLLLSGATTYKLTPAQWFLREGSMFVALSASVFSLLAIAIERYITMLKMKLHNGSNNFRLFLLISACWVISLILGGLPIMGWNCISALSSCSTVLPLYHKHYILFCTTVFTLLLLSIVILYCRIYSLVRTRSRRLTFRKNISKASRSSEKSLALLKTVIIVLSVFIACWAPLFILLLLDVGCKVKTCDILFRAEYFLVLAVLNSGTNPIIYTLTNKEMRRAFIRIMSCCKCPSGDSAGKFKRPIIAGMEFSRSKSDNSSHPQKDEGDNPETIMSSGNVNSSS
Description: as §1, §2, §3, §4

[4] = target: T4, zS1P1 (Danio rerio, UniProt Q9DDK4); experiment: [γ-35S]GTP binding, zebrafish S1P1 overexpressed in rat RH-7777 cells; settings: GTPγS binding, zebrafish S1P1 in rat RH-7777
T4 construct: expressed in transfected cells; host or cells: rat hepatoma RH-7777
T4 sequence (Q9DDK4 1-362): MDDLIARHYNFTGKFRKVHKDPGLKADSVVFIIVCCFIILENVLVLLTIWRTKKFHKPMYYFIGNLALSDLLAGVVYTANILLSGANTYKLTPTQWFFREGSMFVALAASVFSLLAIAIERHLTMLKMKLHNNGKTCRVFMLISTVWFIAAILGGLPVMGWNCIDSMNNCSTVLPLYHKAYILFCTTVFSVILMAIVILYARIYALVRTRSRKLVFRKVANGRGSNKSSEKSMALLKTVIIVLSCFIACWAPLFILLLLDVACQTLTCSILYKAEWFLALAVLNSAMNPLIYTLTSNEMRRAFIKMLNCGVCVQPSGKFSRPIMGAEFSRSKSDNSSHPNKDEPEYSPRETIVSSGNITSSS
Description: as §2
Rat hepatoma RH7777 cell monolayers were transfected with human or mouse S1P5/pCR3.1 DNA using the calcium phosphate precipitate method, and clonal populations expressing the neomycin phosphotransferase gene were selected by addition of Ge-neticin (G418) to the culture medium. The RH7777 cells were grown in monolayers at 37° C. in a 5%CO2/95% air atmosphere in growth medium consisting of 90% MEM, 10% fetal bovine serum, 2 mM glutamine, and 1 mM sodium pyruvate.
as §3

[5] = target: T5, mS1P5 (Mus musculus, UniProt Q91X56); experiment: [γ-35S]GTP binding to HEK293T cell membranes, mS1P5; settings: GTPγS binding
T5 construct: expressed in transfected cells; host or cells: HEK293T
T5 sequence (Q91X56 whole entry): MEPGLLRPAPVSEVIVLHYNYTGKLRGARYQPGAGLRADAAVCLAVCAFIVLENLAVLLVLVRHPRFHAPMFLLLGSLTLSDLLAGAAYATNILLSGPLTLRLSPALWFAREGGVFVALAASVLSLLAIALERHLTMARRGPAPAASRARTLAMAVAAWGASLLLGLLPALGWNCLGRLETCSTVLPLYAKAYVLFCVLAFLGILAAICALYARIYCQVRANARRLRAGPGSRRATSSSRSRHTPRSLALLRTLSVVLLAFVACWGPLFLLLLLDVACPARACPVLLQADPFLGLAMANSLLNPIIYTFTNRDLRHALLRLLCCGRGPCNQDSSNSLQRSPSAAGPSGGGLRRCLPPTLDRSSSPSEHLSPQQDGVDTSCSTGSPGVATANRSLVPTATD
Description: as §1, §2, §3

[6] = system: S1P receptors; experiment: [γ-35S]GTP binding assay, statements across the recombinant S1P receptors tested; settings: GTPγS binding
Description: as §1, §2, §3, §4

[7] = target: T6, hS1P4 (Homo sapiens, UniProt O95977); experiment: [γ-35S]GTP binding to HEK293T cell membranes, hS1P4; settings: GTPγS binding, primary alcohols
T6 construct: expressed in transfected cells; host or cells: HEK293T
T6 sequence (O95977 1-384): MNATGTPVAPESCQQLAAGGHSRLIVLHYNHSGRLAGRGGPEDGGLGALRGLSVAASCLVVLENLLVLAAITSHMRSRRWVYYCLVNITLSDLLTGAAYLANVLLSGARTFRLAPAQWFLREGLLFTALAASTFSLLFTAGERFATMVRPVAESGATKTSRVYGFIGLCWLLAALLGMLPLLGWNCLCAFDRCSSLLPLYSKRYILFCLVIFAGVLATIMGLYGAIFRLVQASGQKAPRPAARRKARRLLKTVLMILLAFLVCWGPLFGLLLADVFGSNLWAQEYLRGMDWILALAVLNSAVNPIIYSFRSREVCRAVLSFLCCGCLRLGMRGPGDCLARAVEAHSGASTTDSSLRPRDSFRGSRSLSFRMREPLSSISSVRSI
Description: as §2, §4

[8] = target: T7, hS1P5 (Homo sapiens, UniProt Q9H228); experiment: [γ-35S]GTP binding to HEK293T cell membranes, hS1P5; settings: read-out: EC50 Values (nM) for S1P Analogues at Recombinant S1P Receptors, hS1P5; GTPγS binding; HEK293
T7 construct: expressed in transfected cells; host or cells: HEK293T
T7 sequence (Q9H228 whole entry): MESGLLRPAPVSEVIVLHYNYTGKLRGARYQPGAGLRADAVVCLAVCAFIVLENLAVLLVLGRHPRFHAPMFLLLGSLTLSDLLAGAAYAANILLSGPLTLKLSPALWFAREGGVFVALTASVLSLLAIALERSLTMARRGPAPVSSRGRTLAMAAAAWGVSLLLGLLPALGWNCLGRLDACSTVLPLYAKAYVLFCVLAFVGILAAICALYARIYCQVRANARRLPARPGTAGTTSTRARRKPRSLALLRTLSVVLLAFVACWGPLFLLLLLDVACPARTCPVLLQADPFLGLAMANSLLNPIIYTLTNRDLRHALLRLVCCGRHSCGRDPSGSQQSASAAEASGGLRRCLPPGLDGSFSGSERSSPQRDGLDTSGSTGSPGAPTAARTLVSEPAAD
Description: as §1, §2, §3, §4

[9] = read-out: EC50 Values (nM) for S1P Analogues at Recombinant S1P Receptors, zS1P1
[10] = read-out: EC50 Values (nM) for S1P Analogues at Recombinant S1P Receptors, mS1P5

- activity at the S1P3 receptor (inverse agonism/antagonism or agonism) [2]: agonism
SMILES: CCCCCCCCCc1cccc(NC(=O)[C@H](N)COP(=O)(O)O)c1.O=C(O)C(F)(F)F [VPC23079]
- activity at the S1P2 receptor [1]: failed to show significant activity; also recorded: inactive

- potency relative to S1P at human S1P1 receptor [3]: approached the potency of S1P
- EC50 [3]: 12.7 nM
- EC50 [1]: 2110 nM
- EC50 [4]: 1620 nM
- EC50 [5]: 1820 nM
- potency relative to S1P at human S1P3 receptor [2]: approached the potency of S1P
- EC50 [2]: 50.8 nM
SMILES: CCCCCCCCCCCCCCNC(=O)[C@H](N)COP(=O)(O)O [VPC22135]

- agonist activity at S1P receptors [6]: significant agonist activity
- agonist activity at the S1P4 receptor [7]: good agonist activity
SMILES: CCCCCCCCCc1cccc(NC(=O)[C@H](N)CO)c1.O=C(O)C(F)(F)F [VPC23075]
- activity at the S1P2 receptor [1]: failed to show significant activity; also recorded: inactive

- agonist activity at S1P receptors [6]: significant agonist activity
- agonist activity at the S1P4 receptor [7]: good agonist activity
SMILES: CCCCCCCCCCc1cccc(NC(=O)[C@H](N)CO)c1.O=C(O)C(F)(F)F [VPC23065]
- activity at the S1P2 receptor [1]: failed to show significant activity; also recorded: inactive

- EC50 [3]: 322 nM
- EC50 [1]: 2760 nM
- EC50 [8]: > 5000 nM
- EC50 [4, 9]: > 5000 nM
- EC50 [5, 10]: > 5000 nM
- EC50 [2]: 602 nM
SMILES: CCCCCCCCCCCCCCNC(=O)[C@@H](N)COP(=O)(O)O [VPC22051]

- loss of potency relative to enantiomer VPC22135 at S1P1 receptor [3]: more than 1 log order
- EC50 [3]: 397 nM
- EC50 [1]: 2680 nM
- EC50 [8]: 1610 nM
- EC50 [4, 9]: > 5000 nM
- EC50 [5, 10]: 2010 nM
- loss of potency relative to enantiomer VPC22135 at S1P3 receptor [2]: more than 1 log order
- EC50 [2]: 862 nM
SMILES: CCCCCCCCCCCCCCOC(=O)[C@@H](N)COP(=O)(O)O.O=C(O)C(F)(F)F [VPC22053]

- activity at the S1P3 receptor (inverse agonism/antagonism or agonism) [2]: inverse agonists
SMILES: CCCCCCCCc1ccccc1NC(=O)[C@H](N)COP(=O)(O)O [VPC23089]
- activity at the S1P2 receptor [1]: failed to show significant activity; also recorded: inactive

- activity at S1P1 (antagonism) ([3]; competition with S1P): antagonism
- activity at the S1P3 receptor (inverse agonism/antagonism or agonism) [2]: inverse agonists
SMILES: CCCCCCCCc1cccc(NC(=O)[C@H](N)COP(=O)(O)O)c1 [VPC23019]
- activity at the S1P2 receptor [1]: failed to show significant activity; also recorded: inactive

- agonist activity at S1P receptors [6]: significant agonist activity
- agonist activity at the S1P4 receptor [7]: good agonist activity
SMILES: CCCCCCCCc1ccccc1NC(=O)[C@H](N)CO.O=C(O)C(F)(F)F [VPC23087]
- activity at the S1P2 receptor [1]: failed to show significant activity; also recorded: inactive

- activity at the S1P3 receptor (inverse agonism/antagonism or agonism) [2]: agonism
SMILES: CCCCCCCCCCc1cccc(NC(=O)[C@H](N)COP(=O)(O)O)c1.O=C(O)C(F)(F)F [VPC23069]
- activity at the S1P2 receptor [1]: failed to show significant activity; also recorded: inactive

SMILES: CCCCCCCCCCCCC/C=C/[C@@H](O)[C@@H](N)COP(=O)(O)O [Compound S1P, Sphingosine-1-phosphate, reference compound]
- EC50 [3]: 0.9 nM
- EC50 [4]: 54.6 nM
- EC50 [5]: 12.7 nM
- EC50 [2]: 1.1 nM

- EC50 [3]: 598 nM
- EC50 [1]: 973 nM
- EC50 [8]: 646 nM
- EC50 [4]: 2050 nM
- EC50 [5]: > 5000 nM
- EC50 [2]: 845 nM
SMILES: CCCCCCCCCCCCNC(=O)[C@@H](N)COP(=O)(O)O [VPC22041]

- activity at the S1P3 receptor (inverse agonism/antagonism or agonism) [2]: inverse agonists
SMILES: CCCCCCc1cccc(NC(=O)[C@H](N)COP(=O)(O)O)c1.O=C(O)C(F)(F)F [VPC23031]
- activity at the S1P2 receptor [1]: failed to show significant activity; also recorded: inactive

- EC50 [3]: 1800 nM
- EC50 [8]: 1220 nM
- EC50 [4]: > 5000 nM
- EC50 [5]: 1330 nM
- EC50 [2]: 879 nM
SMILES: CCCCCCCCCCCCCCCCNC(=O)[C@@H](N)COP(=O)(O)O [VPC22063]
